In a melting point compilation (Tetko et al.; mined from patent text by program, amines drawn as free bases though some values may be those of a salt):

In the case of `CCCCCCCCCC(=O)OCC#Cc1ncn2c1CN(C)C(=O)c1c(Cl)cccc1-2`, the melting point is reported as 70 to 72 °C.
Molecule `CCCN(CCC)C(=O)Cn1c(-c2ccc([N+](=O)[O-])cc2)nc2cccnc21` has a melting point of 205 to 208 °C.
Molecule `Cc1c(I)c(=O)n(C2CCCC2)c2nc(Nc3ccc(N4CCNCC4)cn3)ncc12` has a melting point greater than 240 °C.
`COc1ccc(C(=O)O)nc1C` gave a melting point of 183 °C.
Work on `NCC1Cc2cc(C(F)(F)F)cc(-c3ccc(Cl)cc3)c2O1` (stereo unspecified) yielded a melting point greater than 250 °C.
Molecule `COc1ccc(C(=O)Nc2ccc(CN3C(=O)[C@H]4CCC[C@H]4N(C(=O)CN4C(=O)c5ccccc5C4=O)c4ccccc43)cc2)cc1` (relative stereo) has a melting point of 170 to 173 °C.
`COC(=O)c1ccc(-c2ccc3cc(OCc4ccccc4)c(C45CC6CC(CC(C6)C4)C5)cc3c2)s1` gave a melting point of 170 to 171 °C.
For `C[C@H](NC(=O)OC(C)(C)C)[C@@H]1CCN(c2nc3c(cc2F)c(=O)n(N)c(=O)n3C2CC2)C1`, the melting point was 175 to 177 °C.
`CCCCCCc1cc(SC)ccc1OC(=O)c1ccccc1` showed a melting point of 57 to 58 °C.
`COC(=O)CN1C(=S)C(C(C)C)Sc2ccccc21` (stereo unspecified) gave a melting point of 99 to 100 °C.
`COc1ccc(CCC(=O)Nc2c(C)c(C)c3c(c2C)C(c2ccc(C(C)C)cc2)CO3)cc1` (stereo unspecified) showed a melting point of 119 to 120 °C.
`COc1ccc2c(c1)C(=O)c1cc(CC(=O)O)ccc1SC2` showed a melting point of 155 to 157 °C.
`CCC(=O)Nc1cc(S(=O)c2ccccc2)ccc1NC(=NC(=O)OC)NC(=O)OC` (stereo unspecified) showed a melting point of 193 to 195 °C.
`O=C(O)c1ccccc1Nc1ccc(CCc2ccc(N3CC[C@@H]4CCCC[C@H]4C3)cc2)cc1` showed a melting point of 203 to 206 °C.
`CN=C(NCc1ccccc1)NN=Cc1c(Cl)cccc1Cl` gave a melting point of 84 to 86 °C.
Molecule `COc1ccc(C=O)cc1-c1cccs1` has a melting point of 137 to 138 °C.
In the case of `CCCC(NS(=O)(=O)c1ccc(Cl)cc1)C(=O)Nc1ccc(CC(=O)O)cc1` (racemic), the melting point is reported as 202 to 204 °C.
With `COc1nc(C)c2c(c1C#N)CCCC2=O` the melting point was 128 °C.
Molecule `COCCOC(=O)C1=C(C)Nc2nc(N3CCOCC3)nc(N3CCOCC3)c2C1c1cccc([N+](=O)[O-])c1` (stereo unspecified) has a melting point of 172 °C.
Work on `CCOC(=O)c1ccc(OCCCCC2CC3=C(C2)C(=O)C(OC)=C(OC)C3=O)cc1` yielded a melting point of 97 to 99 °C.
`CC1(C(=O)Cc2ccc(Cl)cc2[N+](=O)[O-])CC=CS1` (stereo unspecified) showed a melting point of 142 to 143 °C.
Molecule `c1ccc(Oc2ccc(-c3nc(-c4ccccc4)c(-c4ccccc4)o3)cc2)cc1` has a melting point of 125 to 126 °C.
Work on `CC(C)CN(CC(C)C)c1ccc(C(=O)c2ccccc2)cc1[N+](=O)[O-]` yielded a melting point of 80 to 81 °C.
Molecule `Cn1cc(-c2ccccc2)c(=O)c(-c2ccccc2Cl)c1` has a melting point of 145 °C.
`O=c1[nH]c2ccc(C(F)(F)F)cc2c(-c2cc(Cl)ccc2O)c1Sc1ccc(O)cc1` gave a melting point of 180 to 190 °C.
For `O=C(Cc1noc2ccccc12)NS(=O)(=O)c1ccccc1`, the melting point was 171 to 172 °C.
With `CSc1cc(CCC(=O)OC(C)(C)C)cc(-c2nc(=O)c3ccccc3s2)n1` the melting point was 126 °C.
Molecule `COC(=O)c1ccc2cc(OC)c(OC)cc2c1-c1ccnc(Br)c1` has a melting point of 146 to 148 °C.
Work on `CSc1nccc(C(=O)C(=O)c2ccc(F)cc2)n1` yielded a melting point of 74 to 76 °C.
Molecule `CCOC(=O)C(=CNc1ccc(F)c(N2CCN(C(C)=O)CC2)n1)C(=O)OCC` has a melting point of 164 to 165 °C.
Work on `COc1ccc2cc([C@H](C)C(=O)OCC(=O)OC(C)(C)C)ccc2c1` yielded a melting point of 85 to 86 °C.
`CCCCCN1C(=O)C2(COc3cc4c(cc32)CCO4)c2ccccc21` (stereo unspecified) showed a melting point of 128 to 129 °C.
Molecule `C#CCn1cc(C#N)c(CO)c1` has a melting point of 95 °C.
`CC(C)(C)c1ccc(OCC2=NC3(O)c4ccc(Cl)cc4CC3S2)cc1` (stereo unspecified) showed a melting point of 122 to 124 °C.
In the case of `O=C(O)c1ccc(OCCCO/N=C/c2ccc(C(F)(F)F)cc2)cc1NC(=O)c1ccccc1C(F)(F)F`, the melting point is reported as 147 to 148 °C.
For `O=c1[nH]c2cscc2c(=O)n1CCCCN1CCN(c2cccc(C(F)(F)F)c2)CC1`, the melting point was 126 to 128 °C.
For `COc1ccc(COc2cc3c(cc2-c2cc(C=CC(=O)O)ccc2OC)C(C)(C)CCC3(C)C)cc1`, the melting point was 201 to 203 °C.
`OC1(CNc2c(Br)cnc3cc(Cl)ccc23)CCCCC1` gave a melting point of 151 to 154 °C.
Work on `Cc1c(CCN(C)C(=O)OC(C)(C)C)c2cc(S(=O)(=O)c3ccc(C(F)(F)F)cc3)ccc2n1C` yielded a melting point of 141 to 144 °C.
For `COc1ccc(C(O)c2ccccc2)cc1OC1CCCC1` (stereo unspecified), the melting point was 82.5 to 83 °C.
For `CC(=O)OCCN1CN(C)C(=S)N(c2ccc(C)cc2C)C1`, the melting point was 80 to 83 °C.
For `COc1cc(C2=NCCc3cc(C)ccc32)cc(OC)c1OC`, the melting point was 105 to 106 °C.
`O=C(NCCO)c1cccc(-c2ccc3c(c2)N(c2ccc(Cl)c(Cl)c2)CC3)c1` showed a melting point of 167 to 168 °C.
Work on `CC(c1c[nH]c([N+](=O)[O-])n1)N1CCCCC1` (stereo unspecified) yielded a melting point of 61 to 62 °C.
Work on `CN1CCc2c(CO)csc2C(c2ccccc2)C1` (stereo unspecified) yielded a melting point of 115 °C.
In the case of `O=C1C2=C(CCCC2)C(=O)N1c1ccc(Cl)c2c1CC(CO)O2` (stereo unspecified), the melting point is reported as 193 to 195 °C.
In the case of `C=CCc1cccc2c(=O)cc(C=Cc3ccccc3)oc12`, the melting point is reported as 142 °C.
For `CN(Cc1ccccc1)C(=O)CCc1nc(-c2ccc(Cl)cc2)co1`, the melting point was 99 to 100 °C.
`O=C(O)C1Cc2c(ncn2Cc2ccccc2O)CN1C(=O)C(c1ccccc1)c1ccccc1` (stereo unspecified) gave a melting point of 187 to 190 °C.
In the case of `Cc1nccc2c1[nH]c1cc(OCc3ccccc3)ccc12`, the melting point is reported as 212 °C.
`O=C(CCS)N[C@@H](Cc1ccc(O)c(O)c1)C(=O)O` showed a melting point of 89 to 91 °C.
With `CN1CCN(C)C1=Nc1ccccc1CN1CCOCC1` the melting point was 56 to 58 °C.
For `N#CCC(=O)Nc1ccnn1-c1c(Cl)cc(C(F)(F)F)cc1Cl`, the melting point was 169 to 175 °C.
`Nc1cc(Sc2ccc3c(C(=O)Nc4cccc(OC(F)(F)F)c4)cccc3c2)ncn1` gave a melting point of 197 to 199 °C.
For `COC(=O)C(CO)NS(=O)(=O)c1ccc(OC)cc1` (stereo unspecified), the melting point was 92 to 94 °C.
Work on `COc1ccc(-c2ccc(C)c(OCC(OC)OC)c2)cc1` yielded a melting point of 39 to 40 °C.
For `CSc1ccc(NC(=O)C(C#N)C(=O)c2cccn2C)cc1` (stereo unspecified), the melting point was 167 to 168 °C.
Molecule `NC(=S)c1sccc1N` has a melting point of 98 to 99 °C.
`COc1nsc(N2CCN(c3ccccn3)CC2)n1` showed a melting point of 144 to 145 °C.
Molecule `O=C(Nc1ccc(Oc2ccc(Cl)cc2)cc1)Nc1nonc1-c1ccccc1` has a melting point of 195 °C.
For `O=[N+]([O-])c1ccc(-c2ccc(-c3ccc([N+](=O)[O-])cc3OCc3ccccc3)o2)c(OCc2ccccc2)c1`, the melting point was 233 to 237 °C.
With `CCCn1c(=O)c2[nH]c(-c3cc(C)n(CC(=O)Nc4ccc(OC)c(OC)c4)n3)nc2n(CCC)c1=O` the melting point was 285 to 290 °C.
Work on `COC(=O)C(=CNC1CC1)C(=O)C=Cc1ccc(OC)cc1` yielded a melting point of 125 to 127 °C.
For `COc1cccc(Nc2n[nH]c(N=CN(C)C)c2C#N)c1`, the melting point was 227 to 231 °C.
For `O=c1[nH]c2c(c3nc(-c4ccccc4F)cn13)CNCC2`, the melting point was greater than 310 °C.
In the case of `COC(=O)C(=C(C)C)N1C(=O)[C@H]([C@H](C)OC(=O)OCc2ccc([N+](=O)[O-])cc2)[C@@H]1Cl`, the melting point is reported as 154 to 157 °C.
With `COc1cc(C(=O)N2Cc3ccc(C(=O)NCc4ccc(OC(F)(F)F)cc4)n3Cc3ccccc32)ccc1-c1ccccc1C` the melting point was 145 to 149 °C.
Molecule `Cc1cccc(N2CCN(CCc3c(C)nc4cc(C)ccn4c3=O)CC2)c1` has a melting point of 96 to 97 °C.
Work on `COc1cc2c(cc1OC)[C@@H](c1ccc([N+](=O)[O-])cc1)NN(C1=NCCS1)[C@@H](C)C2` yielded a melting point of 206 to 212 °C.
Work on `CCCCCCCCCCCCCCCCOc1cc(NS(=O)(=O)c2cc([N+](=O)[O-])ccc2OCCOC)c(O)cc1C` yielded a melting point of 85.5 to 86 °C.
For `CCCCCCCCCCCC(=O)OC1CC(c2ccccc2)NC(c2ccccc2)C1` (stereo unspecified), the melting point was 40 to 42 °C.
`COc1ccc(N2CCN(c3c(C)c(C)c4c(c3C)C(O)(C3CCCCC3)C(C)(C)O4)CC2)cc1` (stereo unspecified) showed a melting point of 166 to 167 °C.
With `O=C1CC2(CCCC2)CC(=O)N1c1cccnc1` the melting point was 153 to 154 °C.
`Cc1noc(NS(=O)(=O)c2sccc2-c2ccccc2)c1Br` gave a melting point of 105 to 107 °C.
`CC1(C)C(=O)N([Si](C)(C)C)C(=O)N1[Si](C)(C)C` showed a melting point of 46 to 49 °C.
`O=C(Nc1ccccc1S(=O)(=O)c1ccccc1)N[C@@H](Cc1ccc(Nc2nccc3cnccc23)cc1)C(=O)O` gave a melting point of 192 °C.
In the case of `CC(O)N(C)C(=O)c1cc(C(C)(C)C)c(O)c(C(C)(C)C)c1` (stereo unspecified), the melting point is reported as 161 to 164 °C.
`O=C(O)COc1c(Br)cc(-c2c3ccccc3c(Br)c3oc4ccccc4c23)cc1Br` showed a melting point of 250 to 252 °C.
`Cn1cc(C2c3ccc(Cl)cc3C=Cc3sc(N)nc32)c(=O)[nH]c1=O` (stereo unspecified) gave a melting point greater than 240 °C.
`CCOC(=O)C1CCN(c2nnc(NCc3ccc4c(c3)OCO4)c3cnccc23)CC1` showed a melting point of 119 to 120 °C.
Molecule `CC(C)(C)OC(=O)N1CCC(Nc2cccc(NC(=O)c3ccc(F)cc3Cl)n2)CC1` has a melting point of 82 °C.
Molecule `COC(=O)c1cc(-c2ccc(Cl)cc2)n(-c2ccc(S(N)(=O)=O)cc2)n1` has a melting point of 186 °C.
In the case of `Cc1c(NC(=O)CC(C)(C)C)cc2c(c1C)OC(C)(C)C2=O`, the melting point is reported as 175 to 176 °C.
For `CCN(C(=O)n1oc(C)c(Cl)c1=O)c1ccc(Cl)cc1Cl`, the melting point was 101 to 102 °C.
Work on `CS(=O)(=O)c1ccc(-c2cc(C(=O)CCCO[N+](=O)[O-])nn2-c2ccc(Br)cc2)cc1` yielded a melting point of 150 to 152 °C.
For `N#CC(CCCCOc1ccccc1)(Cn1cncn1)c1ccccc1` (stereo unspecified), the melting point was 95 to 96 °C.
With `Cc1ccc2c(c1)nnn2CNc1ccccc1` the melting point was 149 to 152 °C.
For `O=C(Cl)C=Cc1ccc(Cl)cc1`, the melting point was 78 to 80 °C.
With `COCOc1ccccc1C=CC(=O)O` the melting point was 133 to 134 °C.
`Nc1cc(-n2cc(C(=O)O)c(=O)c3ccc(Cl)nc32)c(F)cc1F` gave a melting point greater than 270 °C.
With `N#CCCNC(=O)c1cccc(-c2ccc3ncn(Cc4ccc(Cl)cc4Cl)c3n2)c1` the melting point was 218 to 219 °C.
`CC(C)(C)OC(=O)NCCCCCN(OCc1ccccc1)C(=O)CCC(=O)O` gave a melting point of 93 to 94 °C.
For `O=C(NC1CCN(CCC2CCOc3ccccc32)CC1)c1ccncc1` (stereo unspecified), the melting point was 122 to 123 °C.
Molecule `CCOP(=O)(CN(CCCc1ccccc1)C(=O)Cc1cc(C(C)(C)C)c(O)c(C(C)(C)C)c1)OCC` has a melting point of 134 to 136 °C.
Molecule `CCOC(=O)n1c(SC(F)(F)C(F)F)nc(-c2ccccc2)c1-c1ccccc1` has a melting point of 126 to 127 °C.
`CCOC(=O)c1cc(C(=O)NC)nc(C(=O)NC)c1NC` showed a melting point of 169 to 170 °C.
